The subject of test [1] is OCI-LY3. In words: Cell growth inhibition assay (CellTiter-Glo, 96 hours), OCI-LY3. The test is classed as cell-based, human. Particulars: OCI-LY3 cells, treated at t=0 and t=48 hours, ATP luminescence. As for the experimental part:
DLBCL cell lines were grown in exponential growth conditions during the 96 hours of treatment. Cells were treated twice: at t=0 and t=48 hours, and cell viability was determined by ATP quantification using a luminescent method ([…]-GLO, Promega, Madison, Wis.). Cell viability in drug-treated cells was normalized to vehicle controls (fractional viability) and results are given as 1-fractional viability.
Experiments were Performed in Triplicate.

The target of test [2] is T1, MALT1 (Homo sapiens (Human), UniProt Q9UDY8). Kind of test: X-ray co-crystal structure of compound and MALT1. The test is classed as binding. Particulars: 2.0 angstrom resolution. As for the experimental part: Compound 101 was incubated with MALT1 to form a complex, and the complex was purified and crystallized for structure determination. X-ray diffraction data was collected, and the compound 101-MALT1 structure was solved in 2.0 angstrom resolution. […] Exemplary evidence for the formation of the covalent bond is the existence of continuous electron density from compound 101 to the Cys464 residue of MALT1. The electron density is 2Fo−Fc map contoured at 1.0 sigma.
T1 sequence (Q9UDY8 whole entry): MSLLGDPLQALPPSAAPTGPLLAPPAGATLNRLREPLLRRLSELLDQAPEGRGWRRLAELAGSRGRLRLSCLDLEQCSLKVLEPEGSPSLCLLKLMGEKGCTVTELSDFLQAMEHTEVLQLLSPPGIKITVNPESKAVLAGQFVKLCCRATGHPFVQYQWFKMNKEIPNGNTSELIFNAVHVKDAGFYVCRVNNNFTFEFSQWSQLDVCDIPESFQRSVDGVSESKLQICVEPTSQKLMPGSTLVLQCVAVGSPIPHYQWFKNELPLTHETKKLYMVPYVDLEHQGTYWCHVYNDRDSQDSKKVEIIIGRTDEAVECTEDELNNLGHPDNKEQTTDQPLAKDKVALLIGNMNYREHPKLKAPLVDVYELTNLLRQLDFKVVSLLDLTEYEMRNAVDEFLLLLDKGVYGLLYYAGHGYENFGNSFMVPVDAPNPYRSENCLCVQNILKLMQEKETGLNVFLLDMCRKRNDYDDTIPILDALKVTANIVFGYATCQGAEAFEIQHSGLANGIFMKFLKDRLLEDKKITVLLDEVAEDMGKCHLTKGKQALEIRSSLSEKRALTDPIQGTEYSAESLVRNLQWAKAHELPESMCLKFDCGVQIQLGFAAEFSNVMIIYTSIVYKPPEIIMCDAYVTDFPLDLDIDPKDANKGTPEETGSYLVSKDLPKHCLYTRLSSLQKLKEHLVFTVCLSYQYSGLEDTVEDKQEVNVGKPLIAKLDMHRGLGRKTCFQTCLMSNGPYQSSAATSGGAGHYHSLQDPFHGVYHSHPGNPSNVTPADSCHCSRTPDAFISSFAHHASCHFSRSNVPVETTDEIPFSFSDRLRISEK

The next test relates to OCI-LY1. In words: Maximum killing effect on OCI-LY1. In kind it is cell-based. As for the experimental part: (§1) The maximum killing effects on cell-lines OCI-LY3, TMD8, and OCI-LY1 were also measured for select compounds at inhibitor concentration of 20 μM and 5 μM. TMD8 is another line of ABC type diffuse large-B cell lymphoma, while OCI-LY1 is a DLBCL line of the germinal center B-cell subtype.

Another test has as its system TMD8. Kind of test: Maximum killing effect on TMD8. In kind it is cell-based. As for the experimental part:
as §1

The target in test [3] is T1, MALT1. Kind of test: Inhibition constants (Ki) for inhibition of MALT1. In kind it is biochemical. Particulars: 100 nM MALT1 used for the assay. As to the method:
For exemplary compounds of the disclosure, Ki for inhibition of MALT1 was measured (Table E11). A concentration of 100 nM MALT1 was used for the assay.

For test [4], the system named is OCI-LY3. Kind of test: Maximum killing effect on OCI-LY3. In kind it is cell-based, human. As to the method:
as §1

A further test deals with RelB cleavage. In words: Western blot for RelB cleavage in OCI-LY3 cells. In kind it is cell-based, human. Particulars: OCI-LY3 cells pretreated with inhibitor, then 5 μM MG-132 for 2 hours. As to the method: FIG. 1A. Western blots for RelB and MALT1 after 30 minutes pretreatment with indicated doses of compounds or vehicle, followed by proteasome inhibitor MG-132 (5 μM) treatment for 2 hours in OCI-LY3. clev=cleavage product of RelB.
FIG. 1B. Western blots for RelB with indicated doses of compounds or vehicle in OCI-LY3.
Western blot: OCI-Ly3 cells (a line of human diffuse large B-cell lymphoma (ABC type)) were pre-treated for 30 minutes with indicated doses of MALT1 inhibitors followed by a 2-hour treatment with proteasome inhibitor MG-132 at 5 μM. Protein was then extracted in a PBS-based lysis buffer containing 1% NP-40. Equal amounts of total protein (50 to 75 μg) were separated on sodium dodecyl sulfate-polyacrylamide gel electrophoresis (SDS-PAGE), and electrotransferred onto nitrocellulose membranes. Membranes were incubated with primary antibodies (MALT1, from Santa Cruz Biotechnologies, Santa Cruz, Calif.; RELB from Cell Signaling, Danvers, Mass., and α-Tubulin from Sigma), followed by secondary antibodies conjugated to horseradish peroxidase, which were detected by chemiluminescence (Pierce, Thermo Scientific, Rockford, Ill.).
OCI-LY3 cells were pretreated with the an inhibitor at the desired concentration and subsequently treated with 5 μM MG-132, a proteasome inhibitor, for 2 hours.

The GI50 is the concentration giving 50% growth inhibition. As a reminder, the Ki is the dissociation constant of the complex between target and ligand, obtained from inhibition or displacement. Low readings indicate tighter binding, high ones weaker binding.

Where a SMILES comes first, the peptide text is derived from it. [ ]: non-standard residue; d: D form. The star is where a group is joined. Hyp = O=C(O)[C@@H]1C[C@@H](O)CN1; NMeV = CN[C@H](C(=O)O)C(C)C; Pip = O=C(O)[C@@H]1CCCCN1; Cbz = O=C(OCc1ccccc1)*; CH2F = FC*

Take `CC(C)[C@H](NC(=O)OCc1ccccc1)C(=O)N1CCC[C@H]1C(=O)N[C@@H](CCCNC(=N)N)C(=O)CF` [Compound 101, Benzyl ((S)-1-((S)-2-(((S)-1-fluoro-6-guanidino-2-oxohexan-3-yl)carbamoyl)pyrrolidin-1-yl)-3-methyl-1-oxobutan-2-yl)carbamate 2,2,2-trifluoroacetate] (Cbz-Val-Pro-Arg-CH2F): in the test with OCI-LY3 [1] (Homo sapiens), it took 8520 nM to inhibit growth by half (GI50). In addition, on MALT1 [2], the “Covalent bond to Cys464 of MALT1 in co-crystal structure” value is reported as “formation of a covalent bond”. In addition, the Maximum killing effect in the test with OCI-LY1 (OCI-LY1, 5 μM) was under 0%; with OCI-LY1 (OCI-LY1, 20 μM) it was 7%; in the test with TMD8 (TMD8, 5 μM), 50%; with TMD8 (TMD8, 20 μM) it was 63%; with OCI-LY3 [4] (OCI-LY3, 5 μM), 70%; in the test with OCI-LY3 [4] (OCI-LY3, 20 μM), 79%. In addition, the Ki on MALT1 [3] worked out at 40 nM.
Turning to `CC(C)[C@H](NC(=O)OCc1ccccc1)C(=O)N1CCCC[C@H]1C(=O)N[C@@H](CCCNC(=N)N)C(=O)CF` [Compound 107] (Cbz-Val-[Pip]-Arg-CH2F), the “Inhibition of RelB cleavage (Western blot)” value (“Inhibition of RelB cleavage” for short) in the test with RelB cleavage is listed as “inhibition of RelB cleavage”. In addition, it took 730 nM to inhibit growth in the test on OCI-LY3 [1] (Homo sapiens) by half (GI50). In addition, the Maximum killing effect in the test on OCI-LY1 (OCI-LY1, 5 μM) came to 3%; in the test on OCI-LY1 (OCI-LY1, 20 μM), 11%; with TMD8 (TMD8, 5 μM), 29%; in the test on TMD8 (TMD8, 20 μM), 58%; in the test on OCI-LY3 [4] (OCI-LY3, 5 μM) it was 38%; in the test on OCI-LY3 [4] (OCI-LY3, 20 μM), 85%. This molecule also came in with a Ki at MALT1 [3] of 40 nM.
With `CC(C)[C@H](NC(=O)OCc1ccccc1)C(=O)N1C[C@H](O)C[C@H]1C(=O)N[C@@H](CCCNC(=N)N)C(=O)CF` [Compound 109] (Cbz-Val-[Hyp]-Arg-CH2F), in the test with RelB cleavage, the “Inhibition of RelB cleavage” value was “inhibition of RelB cleavage”. This molecule had a GI50 with OCI-LY3 [1] (Homo sapiens) of 290 nM. Besides, the Ki at MALT1 [3] is 53 nM.
With `CC(C)[C@@H](C(=O)N1CCC[C@H]1C(=O)N[C@@H](CCCNC(=N)N)C(=O)CF)N(C)C(=O)OCc1ccccc1` [Compound 112] (Cbz-[NMeV]-Pro-Arg-CH2F), the “Inhibition of RelB cleavage” value with RelB cleavage is on record as “inhibition of RelB cleavage”. In the test with OCI-LY3 [1] (Homo sapiens), this molecule came in with a GI50 of over 20000 nM. Besides, the Maximum killing effect amounted to 5% with OCI-LY1 (OCI-LY1, 5 μM); 2% in the test on OCI-LY1 (OCI-LY1, 20 μM); 66% with TMD8 (TMD8, 20 μM); 28% with OCI-LY3 [4] (OCI-LY3, 5 μM); 51% with OCI-LY3 [4] (OCI-LY3, 20 μM). In addition, affinity on MALT1 [3] was put at a Ki of 808 nM.
In the case of `CC(C)[C@H](NC(=O)c1ccc(Br)cc1)C(=O)N1CCC[C@H]1C(=O)N[C@@H](CCCNC(=N)N)C(=O)CF` [Compound 116], the “Inhibition of RelB cleavage” value in the test with RelB cleavage is “inhibition of RelB cleavage”. Also, in the test on OCI-LY3 [1] (Homo sapiens), growth was halved (GI50) at 130 nM. Further, the Maximum killing effect in the test with OCI-LY1 (OCI-LY1, 20 μM) came to 19%; in the test on TMD8 (TMD8, 20 μM), 76%; in the test on OCI-LY3 [4] (OCI-LY3, 20 μM) it was 90%. The molecule also yielded a Ki at MALT1 [3] of 10 nM.
For the molecule `CC(C)C[C@H](NC(=O)OCc1ccccc1)C(=O)N(C)[C@H](C(=O)N1CCC[C@H]1C(=O)N[C@@H](CCCNC(=N)N)C(=O)CF)C(C)C` [Compound 203] (Cbz-L[NMeV]PR-CH2F), the “Inhibition of RelB cleavage” value in the test on RelB cleavage is “inhibition of RelB cleavage”. This molecule registered a GI50 in the test with OCI-LY3 [1] of 819 nM. The Maximum killing effect is given as 3% in the test on OCI-LY1 (OCI-LY1, 20 μM); 59% in the test on TMD8 (TMD8, 20 μM); 79% with OCI-LY3 [4] (OCI-LY3, 20 μM).

(Values after patent US10711036B2, “MALT1 inhibitors and uses thereof” (Cornell University, priority 2015, dated 2020).)
